Data: US12134610B2, “Somatostatin subtype-2 receptor (SST2R) targeted therapeutics and uses thereof” (priority 2022, dated 2024)
pEC50: −log10 of the molar value. Where two headings read alike, the source gives them in different places. Starred links: 1 amine or outer side, 2 acyl side, 3 side chain; linkers in the order of their positions; H or OH if unused. Non-standard residues stand in square brackets, D forms with d. Residues, ends and D or L forms follow the SMILES beside them. *: point of attachment. X1 = Cc1cc(F)cc(-c2cnc(NCCNC(=O)CCOCCC(=O)*)c(-c3nc4ccc(Cl)cc4[nH]3)c2N2CCC(N)CC2)c1; X5 = Cc1cc(F)cc(-c2cnc(NCCNC(=O)CCOCCC(=O)*)c(-c3nc4cc(Cl)ccc4[nH]3)c2N2CCC(N)CC2)c1; Dolaproine = CO[C@@H]([C@@H]1CCCN1)[C@@H](C)C(=O)O; Dil = CC[C@H](C)[C@H](NC)[C@@H](CC(=O)O)OC; PABC = O=C(OCc1ccc(N[*:1])cc1)[*:2]; X2 = C[C@@H](N*)[C@@H](O)c1ccccc1; Cya = N[C@@H](CS(=O)(=O)O)C(=O)O; Cit = NC(=O)NCCC[C@H](N)C(=O)O; NMeV = CN[C@H](C(=O)O)C(C)C

What was measured:
Assay type in all cases: cell-based
[1] = test system: NCI-H524 (ATCC) human small cell lung cancer cells; conditions: 2 h
Procedure: SMDCs of the present invention were assessed in an in vitro assay evaluating the inhibition of cell proliferation. NCI-H524 (ATCC) human small cell lung cancer cells were plated in 96-well V-bottom plates (Costar) at a concentration of 5,000 cells/well. 24 h later, the cells were treated for 2 h with a SMDC. SMDC starting dose was 1 uM and two-fold serial dilutions were done for a total of 11 points. After 2 h of treatment, cells were spun down, and the drug-containing media was removed, and fresh complete media was added and used to resuspend the cells, which were spun again. After removal of the media, the cells were resuspended in complete medium and incubated for an additional 70 h. Cell proliferation was assessed using the CellTiter Glo Assay according to the standard protocol (Promega). Luminescence was measured using a TECAN plate reader. Percent proliferation inhibition was calculated using the following formula: % inhibition=(Luminescence Control−Luminescence Treatment)/Luminescence Control*100. IC50 curves were generated using the nonlinear regression analysis (four-parameter) with GraphPad Prism 9.

[2] = biological target: T1, human somatostatin receptor subtype 2 (Homo sapiens, UniProt P30874); experiment: Functional cAMP assay for SSTR2 agonists (HTRF) in CHO-K1 cells; conditions: CHO-K1 cells stably expressing human SST2, 20 min; for pEC50: read-out: hSST2 cAMP Avg EC50
T1 construct: expressed in transfected cells
T1 sequence (P30874 whole entry): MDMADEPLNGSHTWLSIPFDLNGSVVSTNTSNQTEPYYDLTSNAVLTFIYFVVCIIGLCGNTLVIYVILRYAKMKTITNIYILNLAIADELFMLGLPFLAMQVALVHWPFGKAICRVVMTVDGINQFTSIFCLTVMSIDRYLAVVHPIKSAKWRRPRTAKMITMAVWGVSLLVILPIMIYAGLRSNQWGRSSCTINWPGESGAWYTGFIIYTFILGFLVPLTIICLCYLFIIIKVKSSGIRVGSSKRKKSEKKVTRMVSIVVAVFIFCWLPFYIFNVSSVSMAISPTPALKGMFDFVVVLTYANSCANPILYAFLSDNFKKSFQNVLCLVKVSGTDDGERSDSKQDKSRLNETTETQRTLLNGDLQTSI
Text: General overview: All five SSTR subtypes are Gi coupled G-protein coupled receptors (GPCRs) that lead to decreases in intracellular cyclic AMP (cAMP) when activated by an agonist. Therefore, measurement of intracellular cAMP levels can be used to assess whether compounds of the invention are agonists of SSTR subtypes (John Kelly, Troy Stevens, W. Joseph Thompson, and Roland Seifert, Current Protocols in Pharmacology, 2005, 2.2.1-2.2). One example of an intracellular cAMP assay is described below.
Functional Assay for SSTR2 Agonists
Four days prior to the assay, 2,000 Chinese hamster ovary cells (CHO-K1, ATCC #CCL-61) stably expressing the human somatostatin receptor subtype 2 are plated in each well of a 96-well tissue culture-treated plate in Ham's F12 growth media (ThermoFisher #10-080-CM) supplemented with 10% donor bovine serum (Gemini Bio-Products #100-506), 100 U/mL penicillin; 100 ug/mL streptomycin; 2 mM L-glutamine (Gemini Bio-Products #400-110) and 0.2 mg/mL hygromycin B (GoldBio #31282-04-9). The cells are cultured at 37° C., 5% CO2 and 95% humidity. cAMP is measured with HTRF dynamic cAMP assay (Cisbio, #62AM5PEJ) per manufacturer's instructions. On the day of the assay, the media is aspirated and the cells are treated with 50 μL of stimulation buffer supplemented with 10.2 mM 3-Isobutyl-1-methylxanthine (IBMX, Millipore Sigma #15879) and 1.6 μM NKH477 (Tocris #1603), plus various dilutions of SMDCs of the present invention. The cells are incubated for 20 minutes at 37° C. (the final concentration of the compounds of the invention are typically 0-10,000 nM). The cells are treated with 50 μL of lysis buffer (HRTF cAMP kit, Cisbio) and incubated at room temperature for 30 minutes with rotary shaking at 600 rpm, and then diluted with 150 μL of stimulation buffer and shaken for an additional five minutes at 300 rpm. The lysate is transferred to 384-well plates and incubated for 1-24 hours at room temperature, and cAMP accumulation is detected by d2-labeled cAMP and Anti-cAMP-Cryptate. The time-resolved fluorescent signal is read using a m1000 Pro (Tecan) or CLARIOStar (BMG Labtech) microplate reader, where the samples are excited with light at 340 nm and emission light is measured at 620 nm and 665 nm. The data is expressed as a calculation of the fluorescence ratio (665 nm/620 nm). The intracellular cAMP concentrations are calculated by regression to a standard curve and are plotted vs. the concentration of the compounds of the invention. The EC50 of the compounds are calculated using standard methods. All data manipulations are in GraphPad Prism v9 (GraphPad, San Diego, CA).

SST2 = biological target: T2, SST2 (Homo sapiens, UniProt P30874); experiment: PathHunter CHO-K1 SST2 internalization assay; conditions: PathHunter CHO-K1 SST2, 90 min; for pEC50: read-out: Internalization EC50
T2 construct: host or cells: PathHunter CHO-K1 SST2 cells
T2 sequence (P30874 whole entry): as above
Procedure: SMDCs of the present invention were assessed in vitro using the human PathHunter CHO-K1 SST2 β-arrestin2 and PathHunter CHO-K1 SST2 Internalization Assays from DiscoverX. The CHO-K cells were seeded in 20 μLs of cell culture medium in a white-walled 384 well tissue culture-compatible plate at a density of 2500 cells/well. After a 48-hour incubation, cells were treated with 5 μLs of a 1:3 serially diluted SST2 SMDC prepared at 5× concentration with a final top compound concentration of 10 uM for 90 min at 37 C and in 5% CO2. 11 dilutions were tested as well as one treatment that was compound free. After incubation, the media containing treatments were discarded and 20 μL of a working solution of Beta-Glo from Promega Beta-Glo Assay System was added to each well. The plate was then incubated for 60 min at room temperature in the dark. Luminescence was measured using a Tecan plate reader. IC50 curves were generated using the nonlinear regression analysis (four-parameters) with GraphPad Prism 9. Results were the average of duplicates and are corrected for background.

Row | SMILES | pEC50 [1] | pEC50 [2] | pEC50 (SST2) | EC50 ([2]; hSST2 cAMP Avg EC50 (nM)) [nM] | EC50 (SST2; Internalization EC50 (nM)) [nM]
1 | CCC(C)C(C(CC(=O)N1CCCC1C(OC)C(C)C(=O)NC(C)C(O)c1ccccc1)OC)N(C)C(=O)C(NC(=O)C(C(C)C)N(C)C(=O)OCc1ccc(NC(=O)[C@H](CCCNC(N)=O)NC(=O)[C@@H](NC(=O)CCOCCOCCC(=O)NCCNc2ncc(-c3cc(C)cc(F)c3)c(N3CCC(N)CC3)c2-c2nc3ccc(Cl)cc3[nH]2)C(C)C)cc1)C(C)C (stereo in doubt) [Compound 24] | 7.87 | 9.70 | 7.92 | – | –
2 | CCC(C)C(C(CC(=O)N1CCCC1C(OC)C(C)C(=O)NC(C)C(O)c1ccccc1)OC)N(C)C(=O)C(NC(=O)C(C(C)C)N(C)C(=O)OCc1ccc(NC(=O)[C@H](CCCNC(N)=O)NC(=O)[C@@H](NC(=O)CCOCCOCCOCCOCCC(=O)NCCNc2ncc(-c3cc(C)cc(F)c3)c(N3CCC(N)CC3)c2-c2nc3ccc(Cl)cc3[nH]2)C(C)C)cc1)C(C)C (stereo in doubt) [Compound 25] | 7.60 | 9.47 | 7.57 | – | –
3 | CCC(C)C(C(CC(=O)N1CCCC1C(OC)C(C)C(=O)NC(C)C(O)c1ccccc1)OC)N(C)C(=O)C(NC(=O)C(C(C)C)N(C)C(=O)OCc1ccc(NC(=O)[C@H](CCCNC(N)=O)NC(=O)[C@@H](NC(=O)CCOCCC(=O)NCCNc2ncc(-c3cc(C)cc(F)c3)c(N3CCC(N)CC3)c2-c2nc3ccc(Cl)cc3[nH]2)C(C)C)cc1)C(C)C (stereo in doubt) [Compound 26] | 7.97 | 9.52 | 7.94 | – | –
4 | CCC(C)C(C(CC(=O)N1CCCC1C(OC)C(C)C(=O)NC(C)C(O)c1ccccc1)OC)N(C)C(=O)C(NC(=O)C(C(C)C)N(C)C(=O)OCc1ccc(NC(=O)[C@H](CCCNC(N)=O)NC(=O)[C@@H](NC(=O)CCOCCOCCOCCOCCOCCOCCOCCOCCC(=O)NCCNc2ncc(-c3cc(C)cc(F)c3)c(N3CCC(N)CC3)c2-c2nc3ccc(Cl)cc3[nH]2)C(C)C)cc1)C(C)C (stereo in doubt) [Compound 27] | 7.18 | 9.70 | 7.56 | – | –
5 | CCC(C)C(C(CC(=O)N1CCCC1C(OC)C(C)C(=O)NC(C)C(O)c1ccccc1)OC)N(C)C(=O)C(NC(=O)C(C(C)C)N(C)C(=O)OCc1ccc(NC(=O)[C@H](CCCNC(N)=O)NC(=O)[C@@H](NC(=O)CCOCCC(=O)NCCNc2ncc(-c3cc(C)cc(F)c3)c(N3CCC(N)CC3)c2-c2nc3ccc(C(N)=O)cc3[nH]2)C(C)C)cc1)C(C)C (stereo in doubt) [Compound 28] | 5.89 | 8.70 | 6.15 | – | –
6 | CCC(C)C(C(CC(=O)N1CCCC1C(OC)C(C)C(=O)NC(C)C(O)c1ccccc1)OC)N(C)C(=O)C(NC(=O)C(C(C)C)N(C)C(=O)OCc1ccc(NC(=O)[C@H](CCCNC(N)=O)NC(=O)[C@@H](NC(=O)CNC(=O)[C@H](Cc2ccccc2)NC(=O)CNC(=O)CNC(=O)CCOCCC(=O)NCCNc2ncc(-c3cc(C)cc(F)c3)c(N3CCC(N)CC3)c2-c2nc3ccc(Cl)cc3[nH]2)C(C)C)cc1)C(C)C (stereo in doubt) [Compound 30] | 7.54 | 9.25 | 8.15 | – | –
7 | Cc1cc(F)cc(-c2cnc(NCCNC(=O)CCOCCOCCOCCOCCNC(=O)CCCCC[N+]3=C(/C=C/C=C/C=C4/N(C)c5ccccc5C4(C)C)C(C)(C)c4ccccc43)c(-c3nc4ccc(Cl)cc4[nH]3)c2N2CCC(N)CC2)c1 [Compound 12, 1-[5-({14-[(2-{[4-(4-aminopiperidin-1-yl)-3-(6-chloro-1H-1,3-benzodiazol-2-yl)-5-(3-fluoro-5-methylphenyl)pyridin-2-yl]amino}ethyl)carbamoyl]-3,6,9,12-tetraoxatetradecan-1-yl}carbamoyl)pentyl]-3,3-dimethyl-2-[(1E,3E)-5-[(2E)-1,3,3-trimethyl-2,3-dihydro-1H-indol-2-ylidene]penta-1,3-dien-1-yl]-3H-indol-1-ium] | – | 9.41 | 8.54 | – | –
8 | CC[C@H](C)[C@@H]([C@@H](CC(=O)N1CCC[C@H]1[C@H](OC)[C@@H](C)C(=O)N[C@H](C)[C@@H](O)c1ccccc1)OC)N(C)C(=O)[C@@H](NC(=O)[C@H](C(C)C)N(C)C(=O)OCc1ccc(NC(=O)[C@H](C)NC(=O)[C@@H](NC(=O)[C@H](CCC(=O)O)NC(=O)CCOCCC(=O)NCCNc2ncc(-c3cc(C)cc(F)c3)c(N3CCC(N)CC3)c2-c2nc3cc(Cl)ccc3[nH]2)C(C)C)cc1)C(C)C [Compound 32] (X5-EVA[PABC][NMeV]V[Dil][Dolaproine]-X2) | 6.81 | – | – | – | –
9 | CC[C@H](C)[C@@H]([C@@H](CC(=O)N1CCC[C@H]1[C@H](OC)[C@@H](C)C(=O)N[C@H](C)[C@@H](O)c1ccccc1)OC)N(C)C(=O)[C@@H](NC(=O)[C@H](C(C)C)N(C)C(=O)OCc1ccc(NC(=O)[C@H](CCCNC(N)=O)NC(=O)[C@@H](NC(=O)[C@H](CS(=O)(=O)O)NC(=O)CCOCCOCCOCCOCCC(=O)NCCNc2ncc(-c3cc(C)cc(F)c3)c(N3CCC(N)CC3)c2-c2nc3cc(Cl)ccc3[nH]2)C(C)C)cc1)C(C)C [Compound 81] | 7.49 | – | – | – | –
10 | CC[C@H](C)[C@@H]([C@@H](CC(=O)N1CCC[C@H]1[C@H](OC)[C@@H](C)C(=O)N[C@H](C)[C@@H](O)c1ccccc1)OC)N(C)C(=O)[C@@H](NC(=O)[C@H](C(C)C)N(C)C(=O)OCc1ccc(NC(=O)[C@H](CCCNC(N)=O)NC(=O)[C@@H](NC(=O)[C@H](CS(=O)(=O)O)NC(=O)[C@H](CCC(=O)O)NC(=O)CCOCCC(=O)NCCNc2ncc(-c3cc(C)cc(F)c3)c(N3CCC(N)CC3)c2-c2nc3ccc(Cl)cc3[nH]2)C(C)C)cc1)C(C)C [Compound 115] (X1-E[Cya]V[Cit][PABC][NMeV]V[Dil][Dolaproine]-X2) | – | 10.10 | 8.44 | – | –
11 | CC[C@@]1(O)C(=O)OCc2c1cc1n(c2=O)Cc2c-1nc1cc(F)c(C)c3c1c2[C@@H](NC(=O)OCc1ccc(NC(=O)[C@H](CCCNC(N)=O)NC(=O)[C@@H](NC(=O)CCOCCOCCOCCOCCC(=O)NCCNc2ncc(-c4cc(C)cc(F)c4)c(N4CCC(N)CC4)c2-c2nc4ccc(Cl)cc4[nH]2)C(C)C)c(O[C@@H]2O[C@H](C(=O)O)[C@@H](O)[C@H](O)[C@H]2O)c1)CC3 [Compound 127] | – | – | – | 0.26 | 13
12 | CC[C@H](C)[C@@H]([C@@H](CC(=O)N1CCC[C@H]1[C@H](OC)[C@@H](C)C(=O)N[C@H](C)[C@@H](O)c1ccccc1)OC)N(C)C(=O)[C@@H](NC(=O)[C@H](C(C)C)N(C)C(=O)OCc1ccc(NC(=O)[C@H](CCCNC(N)=O)NC(=O)[C@@H](NC(=O)[C@H](CS(=O)(=O)O)NC(=O)CCOCCOCCOCCOCCC(=O)NCCNc2ncc(-c3cc(C)cc(F)c3)c(N3CCC(N)CC3)c2-c2nc3ccc(Cl)cc3[nH]2)C(C)C)cc1C(=O)NCCN)C(C)C [Compound 157] | – | 9.77 | 7.92 | – | –
